# Experimental data reported in publication PMC11990879, “Anticandidal Activity of Lipopeptides Containing an LL-37-Derived Peptide Fragment KR12” (Molecules, 2025).
# Like-named read-outs stand apart in the source and are kept apart here. Marks after values point to notes of the source that are not given here. Where a SMILES comes first, the peptide text is derived from it. The star is where a group is joined. Myristoyl = CCCCCCCCCCCCCC(=O)*; Lauroyl = CCCCCCCCCCCC(=O)*; Octanoyl = CCCCCCCC(=O)*; X1 = CCCCCCC(CCCC)C(=O)*
# Key:
# C. albicans ATCC 10231 [1] = test: microbe, parasite or virus in culture; format: cell-based, Candida albicans; details: Candida albicans, ATCC10231; C. albicans; RPMI 1640, inoculum ca. 5 × 10^3 CFU/mL, range 0.5–256 mg/L, 48 h, 25 °C, read visually, three times on three days; read-out: Minimum inhibitory concentration (MIC), C. albicans
# Protocol: (§1) Fungal strains were purchased from the Polish Collection of Microorganisms (Polish Academy of Science, Wroclaw, Poland). Four reference strains of Candida (C. albicans ATCC 10231, C. glabrata ATCC 15126, C. lypolytica PCM 2680, and C. tropicalis PCM 2680) were cultured on the Dextrose Sabouraud Agar (DSA, Neogen, Lansing, MI, USA). Before performing the assays, the fungi were cultured in a Sabouraud dextrose broth (DSB, Neogen, Lansing, MI, USA) for 48 h under aerobic conditions at 25 °C. Afterward, the fungal cultures were centrifuged (2500 rpm, 10 min) and resuspended in the appropriate liquid medium for appropriate inoculums for the performed assays.
# (§2) The strains cultured described in Section 4.1 were suspended in the Roswell Park Memorial Institute 1640 Medium (RPMI, Sigma-Aldrich, St. Louis, MO, USA) at an initial inoculum of ca. 5 × 10^3 CFU/mL. The stock solutions (1024 mg/L) of tested compounds in RPMI were added to 96-well polystyrene plates and diluted serially to well no. 10, leaving wells 11 and 12 for fertility and sterility controls. The tested Candida strains were exposed to graded concentrations (range 0.5–256 mg/L) of the lipopeptides and conventional antifungals (benzalkonium chloride, fluconazole, and nystatin) for 48 h under aerobic conditions at 25 °C. After incubation, the results were read visually.
# [2] = system: Candida strains (C. albicans, C. glabrata, C. lipolytica, C. tropicalis); format: cell-based; details: for MIC, range over the tested strains: 48 h
# Protocol: as §1, §2
# (§3) Then the results were read visually. Both MIC as well as the MFC assays were performed threetimes on three different days.
# C. lypolytica PCM 2680 [3] = test: microbe, parasite or virus in culture; format: cell-based, Candida lipolytica; details: Yarrowia lipolytica, PCM2680, MIC wells and two higher concentrations seeded on DSA, 48 h, 25 °C, read visually, three times, read-out: Minimum fungicidal concentration (MFC), C. lipolytica
# Protocol: as §1, §2, §3
# C. tropicalis PCM 2680 [4] = test: microbe, parasite or virus in culture; format: cell-based, Candida tropicalis; details: Candida tropicalis, PCM2680; C. tropicalis; RPMI 1640, inoculum ca. 5 × 10^3 CFU/mL, range 0.5–256 mg/L, 48 h, 25 °C, read visually, three times on three days; read-out: Minimum inhibitory concentration (MIC), C. tropicalis
# Protocol: as §1, §2
# C. glabrata ATCC 15126 [5] = test: microbe, parasite or virus in culture; format: cell-based, Candida glabrata; details: Nakaseomyces glabratus, ATCC15126, MIC wells and two higher concentrations seeded on DSA, 48 h, 25 °C, read visually, three times, read-out: Minimum fungicidal concentration (MFC), C. glabrata
# Protocol: as §1, §2, §3
# [6] = system: C. albicans biofilms cultured on polystyrene; format: cell-based, Candida albicans
# Protocol: as §1
# Fungal suspensions in DSB were added to the wells at initial inoculums of ca. 5 × 10^6 CFU/mL and incubated under aerobic conditions, at 25 °C for 24 h, 48 h, and 72 h, in order to grow candidal biofilms of different maturity. After the appropriate time of incubation, the wells were washed with phosphoric buffered (PBS), and fresh RPMI medium supplemented with antifungals and the lipopeptides at graded concentrations (range […]) were added. The fungal biofilms were exposed to the compounds for 24 h (aerobic conditions, 25 °C). After the exposure to antifungals, the content of the wells was aspirated and a 0.01% solution of resazurin (Sigma-Aldrich, St. Louis, MO, USA) in DSB was added. Resazurin (blue) was applied as a cell viability reagent, which upon contact with living cells is reduced to a pink resorufin. The samples with the dye were incubated for 1 h at 25 °C and the absorbance was measured at 570 and 600 nm with a microplate reader (Thermo Fisher Scientific, Waltham, MA, USA). The assays were performed four times on four different days. The results are presented as the means of the measured percentage of metabolic activity (MA) of fungi in the well when compared with positive (sample with Candida in DSB) and negative controls (pure DSB), which were taken as 100% and 0%, respectively. The MA of Candida in the samples was measured according to the following formula:MA(%) = (ΔAbs of sample − ΔAbs of negative control)/(ΔAbs of positive control − ΔAbs of negative control);(1) ΔAbs = absorbance at 570 nm − absorbance at 600 nm.(2)
# The MBEC was taken as the lowest concentration of antifungal which allowed us to reduce the metabolism of fungal cells to 10% (or less) of the positive control.
# C. lypolytica PCM 2680 [7] = test: microbe, parasite or virus in culture; format: cell-based, Candida lipolytica; details: Yarrowia lipolytica, PCM2680, RPMI 1640, inoculum ca. 5 × 10^3 CFU/mL, range 0.5–256 mg/L, 48 h, 25 °C, read visually, three times on three days, read-out: Minimum inhibitory concentration (MIC), C. lipolytica
# Protocol: as §1, §2
# C. albicans ATCC 10231 [8] = test: microbe, parasite or virus in culture; format: cell-based, Candida albicans; details: Candida albicans, ATCC10231, MIC wells and two higher concentrations seeded on DSA, 48 h, 25 °C, read visually, three times, read-out: Minimum fungicidal concentration (MFC), C. albicans
# Protocol: as §1, §2, §3
# C. tropicalis PCM 2680 [9] = test: microbe, parasite or virus in culture; format: cell-based, Candida tropicalis; details: Candida tropicalis, PCM2680, MIC wells and two higher concentrations seeded on DSA, 48 h, 25 °C, read visually, three times, read-out: Minimum fungicidal concentration (MFC), C. tropicalis
# Protocol: as §1, §2, §3
# [10] = system: C. albicans biofilms cultured on polystyrene; format: cell-based, Candida albicans; details: C. albicans biofilms of 24, 48 and 72 h, up to 512 mg/L
# C. glabrata ATCC 15126 [11] = test: microbe, parasite or virus in culture; format: cell-based, Candida glabrata; details: Nakaseomyces glabratus, ATCC15126; first C. glabrata column; RPMI 1640, inoculum ca. 5 × 10^3 CFU/mL, range 0.5–256 mg/L, 48 h, 25 °C, read visually, three times on three days; read-out: Minimum inhibitory concentration (MIC), C. glabrata
# Protocol: as §1, §2
# [12] = system: Staphylococcus aureus biofilm; details: previous study; ref [21]; cited from earlier work
# Description: Lipidation has proven to be an effective strategy for improving the microbiological properties of the KR12-NH2 peptide. […] The influence of the structure of substituted fatty acids as well as the lipidation pattern was noticed. Among derivatives containing linear fatty acid residues, an analog with octanoic acid turned out to be the most promising antibacterial agent. The C8-KR12-NH2 peptide (compound IV) inhibited the growth of both Gram-p ...
# human red blood cells = details: cited from earlier work
# Description: Table 2 Minimum inhibitory concentrations (MIC) and minimum fungicidal concentrations (MFC) determined for peptides and reference antifungals [g/L]. The highest antimicrobial activity is marked in green, medium values in yellow, while the weakest antifungal activity is marked in red. Minimum hemolytic concentration (MHC5%—causing hemolysis of 5% of human red blood cells) determined in previous stu | column: MHC5%
# [13] = biofilms cultured on polystyrene, 24 h
# [14] = biofilms cultured on polystyrene, 48 h
# [15] = biofilms cultured on polystyrene, 72 h
Structure (SMILES),"MIC, range over the tested strains [2] [µg/mL]",Antibiofilm activity against any type of biofilm [10],MBEC against Staphylococcus aureus biofilm [12] [mg/L],MHC5% (minimum hemolytic concentration causing hemolysis of 5% of human red blood cells) (human red blood cells) [g/L],"MBEC 24 h [6, 13]","MBEC 48 h [6, 14]","MBEC 72 h [6, 15]",further results
"OC(Cn1cncn1)(Cn1cncn1)c1ccc(F)cc1F [Fluconazole, fluconazole, reference compound]",–,showed no antibiofilm activity,–,–,–,–,–,"MIC (C. albicans ATCC 10231 [1]): 4000 µg/mL; Fungicidal activity (MFC relative to MIC) ([2]; MFCs equal to or twice as high as the corresponding MICs): fungicidal activity against C. albicans and C. glabrata; MFC (C. lypolytica PCM 2680 [3]): 8000 µg/mL; MIC (C. tropicalis PCM 2680 [4]): 2000 µg/mL; MFC (C. glabrata ATCC 15126 [5]): 2000 µg/mL; MBEC 24 h ([6]; C. albicans biofilm cultured on polystyrene for 24 h, exposure 24 h, 25 °C, RPMI, resazurin, metabolic activity reduced to 10% or less, four times on four days): >512 * mg/L; MBEC 48 h ([6]; C. albicans biofilm cultured on polystyrene for 48 h, exposure 24 h, 25 °C, RPMI, resazurin, metabolic activity reduced to 10% or less, four times on four days): >512 * mg/L; MBEC 72 h ([6]; C. albicans biofilm cultured on polystyrene for 72 h, exposure 24 h, 25 °C, RPMI, resazurin, metabolic activity reduced to 10% or less, four times on four days): >512 * mg/L; MIC (C. lypolytica PCM 2680 [7]): 2000 µg/mL; MFC (C. albicans ATCC 10231 [8]): 8000 µg/mL; MFC (C. tropicalis PCM 2680 [9]): 8000 µg/mL; MIC (C. glabrata ATCC 15126 [11]): 500 µg/mL"
"CCCCCCCC(=O)N[C@@H](CCCCN)C(=O)N[C@@H](CCCNC(=N)N)C(=O)N[C@H](C(=O)N[C@H](C(=O)N[C@@H](CCC(N)=O)C(=O)N[C@@H](CCCNC(=N)N)C(=O)N[C@H](C(=O)N[C@@H](CCCCN)C(=O)N[C@@H](CC(=O)O)C(=O)N[C@@H](Cc1ccccc1)C(=O)N[C@@H](CC(C)C)C(=O)N[C@@H](CCCNC(=N)N)C(N)=O)[C@@H](C)CC)C(C)C)[C@@H](C)CC [IV, C8-KR12-NH2] (Octanoyl-KRIVQRIKDFLR-NH2)",–,–,4 to 16,64,–,–,–,–
"CCCCCCCCCCCCCC(=O)N[C@@H](CCCCN)C(=O)N[C@@H](CCCNC(=N)N)C(=O)N[C@H](C(=O)N[C@H](C(=O)N[C@@H](CCC(N)=O)C(=O)N[C@@H](CCCNC(=N)N)C(=O)N[C@H](C(=O)N[C@@H](CCCCN)C(=O)N[C@@H](CC(=O)O)C(=O)N[C@@H](Cc1ccccc1)C(=O)N[C@@H](CC(C)C)C(=O)N[C@@H](CCCNC(=N)N)C(N)=O)[C@@H](C)CC)C(C)C)[C@@H](C)CC [VII, C14-KR12-NH2] (Myristoyl-KRIVQRIKDFLR-NH2)",4 to 8,–,64 to 256,4,256 mg/L,256 mg/L,512 mg/L,–

# Further lines, with some results ahead:
"MIC, range over the tested strains [2] [µg/mL]",Structure (SMILES),Antibiofilm activity against any type of biofilm [10],MBEC against Staphylococcus aureus biofilm [12] [mg/L],MHC5% (minimum hemolytic concentration causing hemolysis of 5% of human red blood cells) (human red blood cells) [g/L],"MBEC 24 h [6, 13]","MBEC 48 h [6, 14]","MBEC 72 h [6, 15]",further results
4 to 8,"CCCCCCCCCCCC(=O)N[C@@H](CCCCN)C(=O)N[C@@H](CCCNC(=N)N)C(=O)N[C@H](C(=O)N[C@H](C(=O)N[C@@H](CCC(N)=O)C(=O)N[C@@H](CCCNC(=N)N)C(=O)N[C@H](C(=O)N[C@@H](CCCCN)C(=O)N[C@@H](CC(=O)O)C(=O)N[C@@H](Cc1ccccc1)C(=O)N[C@@H](CC(C)C)C(=O)N[C@@H](CCCNC(=N)N)C(N)=O)[C@@H](C)CC)C(C)C)[C@@H](C)CC [VI, C12-KR12-NH2] (Lauroyl-KRIVQRIKDFLR-NH2)",–,64 to 256,4,512 mg/L,>512 * mg/L,>512 * mg/L,–
4 to 16,"CCCCCCC(CCCC)C(=O)N[C@@H](CCCCN)C(=O)N[C@@H](CCCNC(=N)N)C(=O)N[C@H](C(=O)N[C@H](C(=O)N[C@@H](CCC(N)=O)C(=O)N[C@@H](CCCNC(=N)N)C(=O)N[C@H](C(=O)N[C@@H](CCCCN)C(=O)N[C@@H](CC(=O)O)C(=O)N[C@@H](Cc1ccccc1)C(=O)N[C@@H](CC(C)C)C(=O)N[C@@H](CCCNC(=N)N)C(N)=O)[C@@H](C)CC)C(C)C)[C@@H](C)CC (stereo partly drawn) [XIX, 2-Butyloctanoic acid-KR12-NH2] (X1-KRIVQRIKDFLR-NH2)",did not exhibit antibiofilm activity,–,16,>512 * mg/L,>512 * mg/L,>512 * mg/L,–
